Results from patent EP1115693B9, “SUBSTITUTED POLYCYCLIC ARYL AND HETEROARYL $i([sequence])-HETEROALKYLAMINES USEFUL FOR INHIBITING CHOLESTERYL ESTER [sequence] PROTEIN ACTIVITY” (Monsanto Company, priority 1998, dated 2000).

Target: T1, CETP (Homo sapiens, UniProt P11597)
T1 sequence (P11597 18-493): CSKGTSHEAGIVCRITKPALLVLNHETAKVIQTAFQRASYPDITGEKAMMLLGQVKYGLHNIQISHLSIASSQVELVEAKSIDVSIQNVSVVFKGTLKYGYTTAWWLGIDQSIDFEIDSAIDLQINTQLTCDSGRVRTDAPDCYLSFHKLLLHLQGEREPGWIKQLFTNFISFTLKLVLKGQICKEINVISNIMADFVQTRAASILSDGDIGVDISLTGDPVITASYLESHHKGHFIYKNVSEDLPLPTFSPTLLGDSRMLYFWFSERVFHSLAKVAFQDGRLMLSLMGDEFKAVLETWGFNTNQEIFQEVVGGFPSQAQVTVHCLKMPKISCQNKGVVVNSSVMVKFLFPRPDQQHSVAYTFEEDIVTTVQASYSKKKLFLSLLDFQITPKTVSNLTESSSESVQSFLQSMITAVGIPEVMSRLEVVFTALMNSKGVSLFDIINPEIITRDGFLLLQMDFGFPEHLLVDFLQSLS
Assay: Assay of CETP inhibition using purified components (reconstituted buffer assay): transfer of [3H]CE from HDL to LDL
Assay type: biochemical
Parameters: made in house; host or cells: CHO cells (serum-free conditioned medium)
Details: 2 hours at 37°C
Protocol: ASSAY OF CETP INHIBITION USING PURIFIED COMPONENTS (RECONSTITUTED BUFFER ASSAY)
The ability of compounds to inhibit CETP activity was assessed using an in vitro assay that measured the rate of transfer of radiolabeled cholesteryl ester ([^3H]CE) from HDL donor particles to LDL acceptor particles. Details of the assay are provided by Glenn, K. C. et al. (Glenn and Melton, "Quantification of Cholesteryl Ester Transfer Protein (CETP): A) CETP Activity and B) Immunochemical Assay of CETP Protein," Meth. Enzymol., 263, 339-351 (1996)). Human recombinant CETP can be obtained from the serum-free conditioned medium of CHO cells transfected with a cDNA for CETP and purified as described by Wang, S. et al. (J. Biol. Chem. 267, 17487-17490 (1992)). To measure CETP activity, [^3H]CE-labeled-HDL, LDL, CETP and assay buffer (50 mM tris(hydroxymethyl)aminomethane, pH 7.4; 150 mM sodium chloride; 2 mM ethylenediamine-tetraacetic acid (EDTA); 1% bovine serum albumin) were incubated in a final volume of 200 µL, for 2 hours at 37°C in 96 well plates. […] The inhibitors were then diluted 1:1 with CETP in assay buffer, and then 25 µL of that solution was mixed with 175 µL of lipoprotein pool for assay. Following incubation, LDL was differentially precipitated by the addition of 50 µL of 1% (w/v) dextran sulfate/0.5 M magnesium chloride, mixed by vortex, and incubated at room temperature for 10 minutes. A potion of the solution (200 µL) was transferred to a filter plate (Millipore). After filtration, the radioactivity present in the precipitated LDL was measured by liquid scintillation counting.
This value was defined as the IC50.

Row | SMILES | IC50
1 | Fc1ccc(Oc2cccc(NCc3cccc(OC(F)(F)C(F)F)c3)c2)cc1 [634C] | > 100 µM
2 | O=C(O)c1ccc(COc2cccc(N(Cc3cccc(OC(F)(F)C(F)F)c3)CC(O)C(F)(F)F)c2)cc1 (centres unmarked) [EX-435B, 4-[[3-[[[3-(1,1,2,2-tetrafluoroethoxy)phenyl]methyl](3,3,3-trifluoro-2-hydroxypropyl)amino]phenoxy]methyl]benzoic acid] | > 50 µM
3 | COc1cccc(N(Cc2cccc(C)c2)CC(O)C(F)(F)F)c1 (centres unmarked) [Example 3] | 60 µM
4 | OCc1cccc(CN(CC(O)C(F)(F)F)c2cccc(Oc3ccccc3)c2)c1 (centres unmarked) [Example 618, 3-[[(3-phenoxyphenyl)(3,3,3-trifluoro-2-hydroxypropyl)amino]methyl]benzenemethanol] | 100 µM
5 | O=C(OC(CN(C(=O)c1cccc(C(F)(F)F)c1)c1cccc(F)c1)C(F)(F)F)c1cccc(C(F)(F)F)c1 (centres unmarked) [Example 662, 2,2,2-trifluoro-1-[[(3-fluorophenyl)[3-(trifluoromethyl)benzoyl]amino]-methyl]ethyl 3-trifluoromethylbenzoate] | 50 µM
6 | O=C(c1cccc(C(F)(F)F)c1)N(CC(O)C(F)(F)F)c1cccc(F)c1 (centres unmarked) [Example 663, N-(3-fluorophenyl)-N-(3,3,3-trifluoro-2-hydroxypropyl)-3-(trifluoromethyl)benzamide] | 100 µM
7 | OC(CN(Cc1ccccc1)c1ccccc1)C(F)(F)F (centres unmarked) [compound 2] | 100 µM
8 | OC(CN(Cc1ccccc1)c1cccc(F)c1)C(F)(F)F (centres unmarked) [compound 10] | > 100 µM
9 | OC(CN(Cc1cccc(F)c1)c1cccc(F)c1)C(F)(F)F (centres unmarked) [compound 18] | 60 µM
10 | Cc1ccc(N(Cc2cccc(C(F)(F)F)c2)CC(O)C(F)(F)F)cc1 (centres unmarked) [compound 20] | > 100 µM
11 | Cc1ccccc1N(Cc1cccc(C(F)(F)F)c1)CC(O)C(F)(F)F (centres unmarked) [compound 21] | > 100 µM
12 | OC(CN(Cc1ccc(C(F)(F)F)cc1)c1ccc(F)c(F)c1)C(F)(F)F (centres unmarked) [compound 22] | 50 µM
13 | Cc1ccc(N(Cc2cccc(F)c2)CC(O)C(F)(F)F)cc1 (centres unmarked) [compound 32] | > 100 µM
14 | Cc1ccc(CN(CC(O)C(F)(F)F)c2cccc(Cl)c2)cc1 (centres unmarked) [compound 34] | 50 µM
15 | Cc1ccc(CN(CC(O)C(F)(F)F)c2cccc(C(F)(F)F)c2)cc1 (centres unmarked) [compound 45] | 100 µM
16 | Cc1cccc(CN(CC(O)C(F)(F)F)c2cccc(F)c2)c1 (centres unmarked) [compound 49] | > 100 µM
17 | OC(CN(Cc1cccc(Oc2ccc(Cl)cc2)c1)c1cccc(OC(F)(F)F)c1)C(F)(F)F (centres unmarked) [compound 93] | 50 µM
18 | OC(CN(Cc1cccc(Oc2cc(Cl)cc(Cl)c2)c1)c1cccc(OC(F)(F)F)c1)C(F)(F)F (centres unmarked) [compound 96] | 50 µM
19 | CCCCOc1ccc(CN(CC(O)C(F)(F)F)c2cccc(OC(F)(F)F)c2)cc1 (centres unmarked) [compound 120] | 50 µM
20 | OC(CN(Cc1cccc(OC(F)(F)C(F)F)c1)c1cccc(Oc2cccc(C(F)(F)F)c2F)c1)C(F)(F)F (centres unmarked) [compound 227] | 0.13 µM
21 | OC(CN(Cc1cccc(OC(F)(F)C(F)F)c1)c1cccc(Oc2cccc(F)c2)c1)C(F)(F)F (centres unmarked) [compound 240] | 0.27 µM
22 | Cc1cc(Oc2cccc(N(Cc3cccc(OC(F)(F)C(F)F)c3)CC(O)C(F)(F)F)c2)ccc1F (centres unmarked) [compound 242] | 0.076 µM
23 | OC(CN(Cc1cccc(OC(F)(F)C(F)F)c1)c1cccc(Oc2ccc(S)cc2)c1)C(F)(F)F (centres unmarked) [compound 263] | > 50 µM
24 | O=C(Cc1ccccc1Oc1ccccc1)N(CC(O)C(F)(F)F)c1cccc(OC(F)(F)F)c1 (centres unmarked) [compound 361] | > 100 µM

Now from value to molecule:

Row | IC50 | SMILES
25 | 100 µM | OC(CN(Cc1ccc(-c2ccccc2)cc1)c1ccc(C(F)(F)F)cc1)C(F)(F)F (centres unmarked) [compound 144]
26 | > 100 µM | CCCCOC(=O)c1ccc(N(Cc2cccc(OC(F)(F)F)c2)CC(O)C(F)(F)F)cc1 (centres unmarked) [compound 164]
27 | 32 µM | OC(CN(Cc1ccccc1)c1cccc(Oc2ccccc2)c1)C(F)(F)F (centres unmarked) [compound 217]
28 | > 100 µM | COC(=O)c1cccc(CN(CC(O)C(F)(F)F)c2cccc(OC(F)(F)F)c2)c1 (centres unmarked) [compound 325]
29 | 100 µM | OC(CN(Cc1ccc(-c2ccccc2)cc1)c1cccc(OC(F)(F)F)c1)C(F)(F)F (centres unmarked) [compound 333]
30 | > 100 µM | COc1ccccc1CC(=O)N(CC(O)C(F)(F)F)c1cccc(OC(F)(F)F)c1 (centres unmarked) [compound 339]
31 | 100 µM | COc1ccc(OC)c(C(=O)CN(CC(O)C(F)(F)F)c2cccc(OC(F)(F)F)c2)c1 (centres unmarked) [compound 340]
32 | 100 µM | O=C(c1c(F)c(F)c(F)c(F)c1F)N(CC(O)C(F)(F)F)c1cccc(OC(F)(F)F)c1 (centres unmarked) [compound 343]
33 | 50 µM | COc1cc(CN(CC(O)C(F)(F)F)c2cccc(OC(F)(F)F)c2)cc(OC)c1 (centres unmarked) [compound 350]
34 | 50 µM | O=C(C=Cc1ccccc1)N(CC(O)C(F)(F)F)c1cccc(OC(F)(F)F)c1 (centres unmarked) [compound 351]
35 | 0.19 µM | OC(CN(Cc1cccc(OC(F)(F)C(F)F)c1)c1cccc(OCc2cccc(SC(F)(F)F)c2)c1)C(F)(F)F (centres unmarked) [compound 410]
36 | 0.25 µM | OC(CN(Cc1cccc(OC(F)(F)C(F)F)c1)c1cccc(OCc2cc(F)cc(C(F)(F)F)c2)c1)C(F)(F)F (centres unmarked) [compound 411]
37 | 2.1 µM | CC(C)(C)c1ccc(COc2cccc(N(Cc3cccc(OC(F)(F)C(F)F)c3)CC(O)C(F)(F)F)c2)cc1 (centres unmarked) [compound 418]
38 | 1.7 µM | OC(CN(Cc1cccc(OC(F)(F)C(F)F)c1)c1cccc(OCc2ccccn2)c1)C(F)(F)F (centres unmarked) [compound 432]
39 | 4.3 µM | OC(CN(Cc1cccc(OC(F)(F)C(F)F)c1)c1cccc(Oc2nccs2)c1)C(F)(F)F (centres unmarked) [compound 448]
40 | 50 µM | O=C(c1cccc(N(Cc2cccc(OC(F)(F)C(F)F)c2)CC(O)C(F)(F)F)c1)N1CCOCC1 (centres unmarked) [compound 471]
41 | > 50 µM | OC(CN(Cc1cccc(OC(F)(F)C(F)F)c1)c1cccc(OCCN2CCCC2)c1)C(F)(F)F (centres unmarked) [compound 498]
42 | 14 µM | OCCCOc1cccc(N(Cc2cccc(OC(F)(F)C(F)F)c2)CC(O)C(F)(F)F)c1 (centres unmarked) [compound 504]
43 | 0.97 µM | CC(C)(C)COc1cccc(N(Cc2cccc(OC(F)(F)C(F)F)c2)CC(O)C(F)(F)F)c1 (centres unmarked) [compound 506]
44 | 0.42 µM | OC(CN(Cc1cccc(OC(F)(F)C(F)F)c1)c1cccc(OC2CCCC2)c1)C(F)(F)F (centres unmarked) [compound 509]
45 | 1.8 µM | OC(CN(Cc1cccc(OC(F)(F)C(F)F)c1)c1cccc(Cc2ccccc2)c1)C(F)(F)F (centres unmarked) [compound 515]
46 | 2.5 µM | OC(CN(Cc1cccc(OC(F)(F)C(F)F)c1)c1cccc(-c2ccccc2)c1)C(F)(F)F (centres unmarked) [compound 564]
47 | 80 µM | Oc1cccc(CN(CC(O)C(F)(F)F)c2cccc(Oc3ccc(F)cc3)c2)c1 (centres unmarked) [compound 635]
48 | 0.39 µM | OC(CN(Cc1cccc(SC(F)(F)F)c1)c1cccc(Oc2ccc(F)cc2)c1)C(F)(F)F (centres unmarked) [compound 636]
49 | 4.3 µM | OC(CN(Cc1ccc(C(F)(F)F)cc1)c1cccc(Oc2ccc(F)cc2)c1)C(F)(F)F (centres unmarked) [compound 640]
50 | 11 µM | OC(CN(Cc1cccc(C(F)(F)F)c1)c1cc(Oc2ccc(F)cc2)cc(C(F)(F)F)c1)C(F)(F)F (centres unmarked) [compound 641]
51 | 2.1 µM | OC(CN(Cc1cccc(OC(F)(F)F)c1)c1cc(Oc2ccc(F)cc2)cc(C(F)(F)F)c1)C(F)(F)F (centres unmarked) [compound 643]
52 | 0.77 µM | CCOc1cccc(CN(CC(O)C(F)(F)F)c2cccc(Oc3ccc(F)cc3)c2)c1 (centres unmarked) [compound 646]
53 | 0.83 µM | CCCOc1cccc(CN(CC(O)C(F)(F)F)c2cccc(Oc3ccc(F)cc3)c2)c1 (centres unmarked) [compound 648]
